In patent US7662826B2, “Pyrazolo [1,5-a] pyrimidine derivative and nad (p) h oxidase inhibitor containing the same” (Shionogi & Co., Ltd., priority 2002, dated 2010):

Row | Structure (SMILES) | melting point
1 | O=C1CCN(c2ccccc2NC(=O)c2cnc3c(-c4cccc(Cl)c4)cnn3c2)CC1 [Compound B1] | 212 °C
2 | CNC1CCN(c2ccccc2NC(=O)c2cnc3c(-c4cccc(Cl)c4)cnn3c2)CC1 [Compound B3] | 215 to 217 °C
3 | CCNC1CCN(c2ccccc2NC(=O)c2cnc3c(-c4cccc(Cl)c4)cnn3c2)CC1 [Compound B5] | 193 to 195 °C
4 | CCCNC1CCN(c2ccccc2NC(=O)c2cnc3c(-c4cccc(Cl)c4)cnn3c2)CC1 [Compound B6] | 187 to 189 °C
5 | CCCCNC1CCN(c2ccccc2NC(=O)c2cnc3c(-c4cccc(Cl)c4)cnn3c2)CC1 [Compound B8] | 191 to 192 °C
6 | CC(C)NC1CCN(c2ccccc2NC(=O)c2cnc3c(-c4cccc(Cl)c4)cnn3c2)CC1 [Compound B9] | 206 to 208 °C
7 | CCC(C)NC1CCN(c2ccccc2NC(=O)c2cnc3c(-c4cccc(Cl)c4)cnn3c2)CC1 (stereo not shown) [Compound B11] | 202 to 204 °C
8 | CNC1CCN(c2ccccc2NC(=O)c2cnc3c(-c4ccc(Cl)cc4)cnn3c2)CC1 [Compound B16] | 226 to 228 °C
9 | CCNC1CCN(c2ccccc2NC(=O)c2cnc3c(-c4ccc(Cl)cc4)cnn3c2)CC1 [Compound B17] | 234 to 236 °C
10 | CC(C)NC1CCN(c2ccccc2NC(=O)c2cnc3c(-c4ccc(Cl)cc4)cnn3c2)CC1 [Compound B18] | 246 to 247 °C
11 | CCCNC1CCN(c2ccccc2NC(=O)c2cnc3c(-c4ccc(Cl)cc4)cnn3c2)CC1 [Compound B19] | 235 to 237 °C
12 | C=CCNC1CCN(c2ccccc2NC(=O)c2cnc3c(-c4ccc(Cl)cc4)cnn3c2)CC1 [Compound B20] | 229 to 230 °C
13 | CCCCNC1CCN(c2ccccc2NC(=O)c2cnc3c(-c4ccc(Cl)cc4)cnn3c2)CC1 [Compound B23] | 222 to 224 °C
14 | O=C(Nc1ccccc1N1CCC(O)CC1)c1cnc2c(-c3ccc(Cl)cc3)cnn2c1 [Compound B24] | 256 to 261 °C
15 | O=C(Nc1ccccc1N1CCC[C@H]1CNCCO)c1cnc2c(-c3ccc(Cl)cc3)cnn2c1 [Compound B25] | 134 to 136 °C
16 | N[C@@H]1CCN(c2ccccc2NC(=O)c2cnc3c(-c4ccc(Cl)cc4)cnn3c2)C1 [Compound B28] | 184 to 186 °C
17 | NC[C@@H]1CCCN1c1ccccc1NC(=O)c1cnc2c(-c3ccc(Cl)cc3)cnn2c1 [Compound B30] | 203 to 204 °C

Row | Structure (SMILES) | melting point
18 | CNC1CCN(c2ccccc2NC(=O)Nc2cnc3c(-c4ccc(Cl)cc4)cnn3c2)CC1 [Compound B36] | 137 to 140 °C
19 | CCNC1CCN(c2ccccc2NC(=O)Nc2cnc3c(-c4ccc(Cl)cc4)cnn3c2)CC1 [Compound B38] | 155 to 157 °C
20 | O=C(NCc1ccccc1N1CCNCC1)Nc1cnc2c(-c3cccc(Cl)c3)cnn2c1 [Compound B40] | 196 to 197 °C
21 | CCCNC1CCN(c2ccccc2NC(=O)Nc2cnc3c(-c4ccc(Cl)cc4)cnn3c2)CC1 [Compound B41] | 151 to 153 °C
22 | C=CCNC1CCN(c2ccccc2NC(=O)Nc2cnc3c(-c4ccc(Cl)cc4)cnn3c2)CC1 [Compound B43] | 152 to 153 °C
23 | CNC1CCN(c2ccccc2NC(=O)Nc2cnc3c(-c4cccc(Cl)c4)cnn3c2)CC1 [Compound B55] | 117 to 128 °C (dec.)
24 | CCNC1CCN(c2ccccc2NC(=O)Nc2cnc3c(-c4cccc(Cl)c4)cnn3c2)CC1 [Compound B58] | 157 to 159 °C (dec.)
25 | C=CCNC1CCN(c2ccccc2NC(=O)Nc2cnc3c(-c4cccc(Cl)c4)cnn3c2)CC1 [Compound B59] | 150 to 154 °C (dec.)
26 | O=C(Nc1cnc2c(-c3cccc(Cl)c3)cnn2c1)c1ccccc1N1CCNCC1 [Compound B165] | 269 to 271 °C
27 | O=C(Nc1ccccc1N1CC[C@@H](NCCO)C1)c1ccn2ncc(-c3cccc(Cl)c3)c2n1 [Compound B170] | 125 to 127 °C
28 | O=C(Nc1ccccc1N1CC[C@H](NCCO)C1)c1ccn2ncc(-c3cccc(Cl)c3)c2n1 [Compound B171] | 124 to 125 °C
29 | NCCN[C@@H]1CCN(c2ccccc2NC(=O)c2ccn3ncc(-c4cccc(Cl)c4)c3n2)C1.O=C(O)/C=C/C(=O)O [Compound B172] | 151 to 152 °C
30 | NCCN[C@H]1CCN(c2ccccc2NC(=O)c2ccn3ncc(-c4cccc(Cl)c4)c3n2)C1 [Compound B173] | 160 to 162 °C
31 | NC[C@H]1CCCN1c1ccccc1NC(=O)c1ccn2ncc(-c3cccc(Cl)c3)c2n1 [Compound B196] | 168 to 170 °C
32 | O=C(Nc1ccccc1N1CCC[C@@H]1CNCCO)c1ccn2ncc(-c3cccc(Cl)c3)c2n1 [Compound B198] | 118 to 121 °C
33 | CCCNC1CCN(c2ccccc2NC(=O)Nc2cnc3c(-c4cccc(Cl)c4)cnn3c2)CC1 [Compound B199] | 152 to 155 °C
34 | CC(C)NC1CCN(c2ccccc2NC(=O)Nc2cnc3c(-c4ccc(Cl)cc4)cnn3c2)CC1 [Compound B203] | > 300 °C

Next, values leading:

Row | melting point | Structure (SMILES)
35 | 97 to 98 °C | CNC[C@H]1CCCN1c1ccccc1NC(=O)c1ccn2ncc(-c3cccc(Cl)c3)c2n1 [Compound B215]
36 | 183 to 184 °C | O=C(Nc1cnc2c(-c3ccc(Cl)cc3)cnn2c1)Nc1ccccc1N1CCNCC1 [Compound B218]
37 | 229 to 231 °C | CCC(C)NC1CCN(c2ccccc2NC(=O)c2cnc3c(-c4ccc(Cl)cc4)cnn3c2)CC1 (stereo not shown) [Compound B243]
38 | 164 to 165 °C | O=C(Nc1ccccc1N1CC[C@@H](NCCO)C1)c1cnc2c(-c3ccc(Cl)cc3)cnn2c1 [Compound B245]
39 | 120 to 140 °C | O=C(Nc1cnc2c(-c3cccc(Cl)c3)cnn2c1)Nc1ccccc1N1CCNCC1 [Compound B249]
40 | 185 to 187 °C | O=C(NCc1ccccc1N1CCNCC1)Nc1cnc2c(-c3ccc(Cl)cc3)cnn2c1 [Compound B263]
41 | 236 to 238 °C | O=C(Nc1cnc2c(-c3ccc(Cl)cc3)cnn2c1)c1ccccc1N1CCNCC1 [Compound B277]
42 | 267 to 269 °C (dec.) | O=C(Nc1ccc(N2CCNCC2)cc1)c1cnc2c(-c3ccc(Cl)cc3)cnn2c1 [Compound B280]
43 | 190 to 191 °C | Clc1cccc(-c2cnn3ccc(/C4=N/c5ccccc5N5CCCCC5CN4)nc23)c1 (stereo not shown) [Compound B292]
44 | 138 to 143 °C | CCCCNC1CCN(c2ccccc2NC(=O)Nc2cnc3c(-c4ccc(Cl)cc4)cnn3c2)CC1 [Compound B293]
45 | 211 to 212 °C | NCCC1CCCCN1c1ccccc1NC(=O)c1ccn2ncc(-c3cccc(Cl)c3)c2n1.O=C(O)/C=C/C(=O)O (stereo not shown) [Compound B313]
46 | 100 to 102 °C (dec.) | COc1ccc(NC(=O)c2ccn3ncc(-c4cccc(Cl)c4)c3n2)cc1N1CCNCC1 [Compound B314]
47 | 159 to 160 °C | NCC1CCCCN1c1ccccc1NC(=O)c1ccn2ncc(-c3cccc(Cl)c3)c2n1 (stereo not shown) [Compound B316]
48 | 210 to 212 °C | COc1ccc(NC(=O)c2ccn3ncc(-c4ccc(Cl)cc4)c3n2)cc1N1CCNCC1 [Compound B317]
49 | 186 to 188 °C | NC[C@H]1CCCN1c1ccccc1NC(=O)c1ccn2ncc(-c3ccc(Cl)cc3)c2n1 [Compound B318]
50 | 216 to 217 °C | CCCNC1CCN(c2ccccc2NC(=O)C2=CNc3c(-c4ccc(Cl)cc4)cnn3C2)CC1 [Compound B319]
51 | > 300 °C | CCC(C)NC1CCN(c2ccccc2NC(=O)Nc2cnc3c(-c4ccc(Cl)cc4)cnn3c2)CC1 (stereo not shown) [Compound B336]
52 | 190 to 192 °C | O=C(NCc1ccccc1N1CCOCC1)c1ccn2nc(-c3ccccc3)cc2n1 [Example 12, N-(2-morpholinophenyl)methyl 2-phenyl-pyrazolo-[1,5-a]-pyrimidine-5-amide]
